# From US20120329787A1, “FUNGICIDAL PYRANONES AND OXAZINONES” (E.I. DU PONT DE NEMOURS AND COMPANY, priority 2011, published 2012)
# Legend:
# Format in all cases: in vivo
# Botrytis cinerea = experiment: Test A: tomato Botrytis, spray on tomato seedlings the day before inoculation; conditions: 200 ppm test suspension; for pest or weed control at 200 ppm: Botrytis cinerea, 120 h, read-out: Test A rating (100 = 100% disease control, 0 = no disease control)
# Description: General protocol for preparing test suspensions for Tests A-I: the test compounds were first dissolved in acetone in an amount equal to 3% of the final volume and then suspended at the desired concentration (in ppm) in acetone and purified water (50/50 mix by volume) containing 250 ppm of the surfactant Trem® 014 (polyhydric alcohol esters). The resulting test suspensions were then used in Tests A-I. Spraying a 200 ppm test suspension to the point of run-off on the test plants was the equivalent of a rate of 500 g/ha. […] (An asterisk “*” next to the rating value indicates a 40 ppm test suspension was used.) The test suspension was sprayed to the point of run-off on tomato seedlings. The following day, the seedlings were inoculated with a spore suspension of Botrytis cinerea (the causal agent of tomato Botrytis) and incubated in a saturated atmosphere at 20° C. for 48 h, and then moved to a growth chamber at 24° C. for 3 additional days, after which time visual disease ratings were made. […] A dash (-) indicates no test results. All results are for 200 ppm except where followed by an asterisk “*”, which indicates a 40 ppm.
# Alternaria solani = experiment: Test B: tomato early blight, spray on tomato seedlings the day before inoculation; conditions: 200 ppm test suspension; for pest or weed control at 200 ppm: Alternaria solani, 168 h, read-out: Test B rating (100 = 100% disease control, 0 = no disease control)
# Description: General protocol for preparing test suspensions for Tests A-I: the test compounds were first dissolved in acetone in an amount equal to 3% of the final volume and then suspended at the desired concentration (in ppm) in acetone and purified water (50/50 mix by volume) containing 250 ppm of the surfactant Trem® 014 (polyhydric alcohol esters). The resulting test suspensions were then used in Tests A-I. Spraying a 200 ppm test suspension to the point of run-off on the test plants was the equivalent of a rate of 500 g/ha. […] (An asterisk “*” next to the rating value indicates a 40 ppm test suspension was used.) The test suspension was sprayed to the point of run-off on tomato seedlings. The following day, the seedlings were inoculated with a spore suspension of Alternaria solani (the causal agent of tomato early blight) and incubated in a saturated atmosphere at 27° C. for 48 h, and then moved to a growth chamber at 20° C. for 5 days, after which time visual disease ratings were made. […] A dash (-) indicates no test results. All results are for 200 ppm except where followed by an asterisk “*”, which indicates a 40 ppm.
# Septoria nodorum = experiment: Test E: Septoria glume blotch, spray on wheat seedlings the day before inoculation; conditions: for Test E rating (100 = 100% disease control, 0 = no disease control) / pest or weed control at 200 ppm: 200 ppm test suspension
# Description: General protocol for preparing test suspensions for Tests A-I: the test compounds were first dissolved in acetone in an amount equal to 3% of the final volume and then suspended at the desired concentration (in ppm) in acetone and purified water (50/50 mix by volume) containing 250 ppm of the surfactant Trem® 014 (polyhydric alcohol esters). The resulting test suspensions were then used in Tests A-I. Spraying a 200 ppm test suspension to the point of run-off on the test plants was the equivalent of a rate of 500 g/ha. […] (An asterisk “*” next to the rating value indicates a 40 ppm test suspension was used.) The test suspension was sprayed to the point of run-off on wheat seedlings. […] A dash (-) indicates no test results. All results are for 200 ppm except where followed by an asterisk “*”, which indicates a 40 ppm.
# Septoria tritici = experiment: Test F: wheat leaf blotch, spray on wheat seedlings the day before inoculation; conditions: 200 ppm test suspension; for pest or weed control at 200 ppm: Zymoseptoria tritici, 504 h, read-out: Test F rating (100 = 100% disease control, 0 = no disease control)
# Description: General protocol for preparing test suspensions for Tests A-I: the test compounds were first dissolved in acetone in an amount equal to 3% of the final volume and then suspended at the desired concentration (in ppm) in acetone and purified water (50/50 mix by volume) containing 250 ppm of the surfactant Trem® 014 (polyhydric alcohol esters). The resulting test suspensions were then used in Tests A-I. Spraying a 200 ppm test suspension to the point of run-off on the test plants was the equivalent of a rate of 500 g/ha. […] (An asterisk “*” next to the rating value indicates a 40 ppm test suspension was used.) The test suspension was sprayed to the point of run-off on wheat seedlings. The following day, the seedlings were inoculated with a spore suspension of Septoria tritici (the causal agent of wheat leaf blotch) and incubated in a saturated atmosphere at 24° C. for 48 h, and then the seedlings were moved to a growth chamber at 20° C. for 19 additional days, after which time visual disease ratings were made. […] A dash (-) indicates no test results. All results are for 200 ppm except where followed by an asterisk “*”, which indicates a 40 ppm.
# [1] = test system: Puccinia recondita f. sp. tritici; experiment: Test G: wheat leaf rust, spray on wheat seedlings after inoculation (curative); conditions: 200 ppm test suspension, sprayed after inoculation; for pest or weed control at 200 ppm: Puccinia recondita, 96 h, read-out: Test G rating (100 = 100% disease control, 0 = no disease control)
# Description: General protocol for preparing test suspensions for Tests A-I: the test compounds were first dissolved in acetone in an amount equal to 3% of the final volume and then suspended at the desired concentration (in ppm) in acetone and purified water (50/50 mix by volume) containing 250 ppm of the surfactant Trem® 014 (polyhydric alcohol esters). The resulting test suspensions were then used in Tests A-I. Spraying a 200 ppm test suspension to the point of run-off on the test plants was the equivalent of a rate of 500 g/ha. […] (An asterisk “*” next to the rating value indicates a 40 ppm test suspension was used.) Wheat seedlings were inoculated with a spore suspension of Puccinia recondita f. sp. tritici (the causal agent of wheat leaf rust) and incubated in a saturated atmosphere at 20° C. for 24 h, and then moved to a growth chamber at 20° C. for 2 days. At the end of this time, the test suspension was sprayed to the point of run-off, and then the seedlings were moved to a growth chamber at 20° C. for 4 days after which time visual disease ratings were made. […] A dash (-) indicates no test results. All results are for 200 ppm except where followed by an asterisk “*”, which indicates a 40 ppm.
# [2] = test system: Puccinia recondita f. sp. tritici; experiment: Test H: wheat leaf rust, spray on wheat seedlings the day before inoculation; conditions: 200 ppm test suspension, sprayed before inoculation; for pest or weed control at 200 ppm: Puccinia recondita, 168 h, read-out: Test H rating (100 = 100% disease control, 0 = no disease control)
# Description: General protocol for preparing test suspensions for Tests A-I: the test compounds were first dissolved in acetone in an amount equal to 3% of the final volume and then suspended at the desired concentration (in ppm) in acetone and purified water (50/50 mix by volume) containing 250 ppm of the surfactant Trem® 014 (polyhydric alcohol esters). The resulting test suspensions were then used in Tests A-I. Spraying a 200 ppm test suspension to the point of run-off on the test plants was the equivalent of a rate of 500 g/ha. […] (An asterisk “*” next to the rating value indicates a 40 ppm test suspension was used.) The test suspension was sprayed to the point of run-off on wheat seedlings. The following day, the seedlings were inoculated with a spore suspension of Puccinia recondita f. sp. tritici (the causal agent of wheat leaf rust) and incubated in a saturated atmosphere at 20° C. for 24 h, and then moved to a growth chamber at 20° C. for 6 days, after which time visual disease ratings were made Results for Tests A-I are given in Table A. […] A dash (-) indicates no test results. All results are for 200 ppm except where followed by an asterisk “*”, which indicates a 40 ppm.
# [3] = test system: Erysiphe graminis f. sp. tritici; experiment: Test I: wheat powdery mildew, spray on wheat seedlings the day before inoculation; conditions: 200 ppm test suspension; for pest or weed control at 200 ppm: Blumeria graminis, 168 h, read-out: Test I rating (100 = 100% disease control, 0 = no disease control)
# Description: General protocol for preparing test suspensions for Tests A-I: the test compounds were first dissolved in acetone in an amount equal to 3% of the final volume and then suspended at the desired concentration (in ppm) in acetone and purified water (50/50 mix by volume) containing 250 ppm of the surfactant Trem® 014 (polyhydric alcohol esters). The resulting test suspensions were then used in Tests A-I. Spraying a 200 ppm test suspension to the point of run-off on the test plants was the equivalent of a rate of 500 g/ha. […] (An asterisk “*” next to the rating value indicates a 40 ppm test suspension was used.) The test suspension was sprayed to the point of run-off on wheat seedlings. The following day, the seedlings were inoculated with a spore dust of Erysiphe graminis f. sp. tritici, (the causal agent of wheat powdery mildew) and incubated in a growth chamber at 20° C. for 7 days, after which time visual disease ratings were made. […] A dash (-) indicates no test results. All results are for 200 ppm except where followed by an asterisk “*”, which indicates a 40 ppm.
# [4] = Parastagonospora nodorum, 264 h, read-out: Test E rating (100 = 100% disease control, 0 = no disease control)
SMILES,"Test A rating (100 = 100% disease control, 0 = no disease control) (Botrytis cinerea) [%]","Test B rating (100 = 100% disease control, 0 = no disease control) (Alternaria solani) [%]","Test E rating (100 = 100% disease control, 0 = no disease control) (Septoria nodorum) [%]","Test F rating (100 = 100% disease control, 0 = no disease control) (Septoria tritici) [%]","Test G rating (100 = 100% disease control, 0 = no disease control) [1] [%]","Test H rating (100 = 100% disease control, 0 = no disease control) [2] [%]","Test I rating (100 = 100% disease control, 0 = no disease control) [3] [%]",pest or weed control at 200 ppm (Botrytis cinerea) [%],pest or weed control at 200 ppm (Alternaria solani) [%],pest or weed control at 200 ppm (Septoria nodorum; [4]) [%],pest or weed control at 200 ppm (Septoria tritici) [%],pest or weed control at 200 ppm [1] [%],pest or weed control at 200 ppm [2] [%],pest or weed control at 200 ppm [3] [%],"pest or weed control at 40 ppm (Septoria nodorum; Parastagonospora nodorum, 264 h, 40 ppm test suspension (asterisk), read-out: Test E rating (100 = 100% disease control, 0 = no disease control)) [%]"
COc1cc(F)c(-c2c(C)oc(=O)c(C)c2-c2c(Cl)c(OC)cc(OC)c2Cl)c(F)c1 [Compound 44],79,0,0,73,26,96,0,,,,,,,,
"COc1cc(OC)cc(-c2c(-c3ccc(F)cc3F)c(C)oc(=O)c2C)c1 [Compound 48, 5-(2,4-difluorophenyl)-4-(3,5-dimethoxyphenyl)-3,6-dimethyl-2H-pyran-2-one]",,,,,,,,100,97,99,100,100,100,100,
"COc1cc(OC)cc(-c2c(-c3ccc(F)cc3F)c(C)oc(=O)c2-c2ccccc2F)c1 [Compound 33, 5-(2,4-difluorophenyl)-4-(3,5-dimethoxyphenyl)-3-(2-fluorophenyl)-6-methyl-2H-pyran-2-one]",,,,,,,,99,100,,98,99,100,76,99
COc1cc(OC)cc(-c2c(C)oc(=O)c(C)c2-c2c(F)cc(OC)cc2F)c1 [Compound 43],100,100,100,100,98,100,100,,,,,,,,
"Cc1oc(=O)c(C)c(-c2ccc(F)cc2F)c1Br [Compound 41, 5-bromo-4-(2,4-difluorophenyl)-3,6-dimethyl-2H-pyran-2-one]",,,,,,,,67,0,0,0,0,0,0,
"COc1cc(OC)cc(-c2c(C)oc(=O)c(C)c2-c2ccc(F)cc2F)c1 [Compound 42, 4-(2,4-difluorophenyl)-5-(3,5-dimethoxyphenyl)-3,6-dimethyl-2H-pyran-2-one]",,,,,,,,98,0,0,100,0,100,99,
COc1cc(OC)c(Cl)c(-c2c(-c3c(F)cc(F)cc3F)c(C)oc(=O)c2C)c1Cl [Compound 59],100,0,0,,82,100,90,,,,,,,,
COc1cc(OC)cc(-c2c(C)noc(=O)c2-c2c(F)cc(F)cc2F)c1 [Compound 24],98,63,0,99,0,,99,,,,,,,,
COc1cc(OC)cc(-c2c(-c3ccccc3F)c(C)oc(=O)c2C)c1 [Compound 60],,26,0,100,96,100,98,,,,,,,,
